Where a SMILES comes first, the peptide text is derived from it.

The source of these data is US4190646A, “Polypeptide compositions and methods” (Sloan-Kettering Institute for Cancer Research, priority 1979, dated 1980).

Assay [1] is described as follows: activity compared with the basic pentapeptide of Example I, in Twomey solution. Conditions: 1 μg/ml in 89% Twomey solution.
The subject of a further assay is CR^+ B cells. The assay is described as follows: induction in vitro of CR+ B cell differentiation from CR- B cell precursors. Conditions: concentrations of 0.01 ng to 10 μg/ml. The assay is classed as cell-based, nu/nu mice. The method, then:
To determine the activity and characteristics of the polypeptide, determinations were carried out on healthy 5-6 weeks nu/nu mice of both sexes, the mice being bred on a BALB/c background (thymocytes expressing Thy-1.2 surface antigen) and maintained under conventional conditions. For the antisera, anti Thy-1.2 sera were prepared in Thy-1 congenic mice.
For the induction in vitro of Thy-1^+ T cells or CR^+ B cell differentiation, the induction of thymocyte differentiation from prothymocytes in vitro was performed as described by Komuro and Boyse, (Lancet, 1, 740, 1973), using the acquisition of Thy-1.2 as a marker of T cell differentiation. The induction of CR^+ B cell differentiation from CR^- B cell precursors in vitro was performed under similar conditions using as the assay criterion, the capacity of CR^+ cells to bind sheep erythrocytes coated with subagglutinating quantities of rabbit antibody and nonlytic complement. Spleen cell populations from healthy nu/nu mice fractionated on discontinuous bovine serum albumin gradients were used as the source of both precursor types (Thy-1^- and CR^-) because they have few or no Thy-1^+ cells and low numbers of CR^+ cells.

Assay [2] has as its system neuromuscular transmission. The assay is described as follows: neuromuscular transmission assessed by electromyography after injection. In kind it is in vivo. Conditions: mice, single injection of 10-100 μg peptide in saline intraperitoneally, 24 hours later. The method, then:
To determine the effect of this peptide on neuromuscular transmission, mice were injected with 10-100 μg peptide in N saline intraperitoreally. Twenty-four hours later, neuromuscular transmission was assessed by electromyography as described in Lancet, Vol. 12, pps. 256-259, 1975.

Regarding `CC(C)[C@H](NC(=O)[C@H](CC(=O)O)NC(=O)[C@H](CCCCN)NC(=O)[C@@H](N)CCCNC(=N)N)C(=O)N[C@@H](Cc1ccc(O)cc1)C(N)=O` [Example IV, H2 N-ARG-LYS-ASP-VAL-TYR-CONH2] (H-RKDVY-NH2), in assay [1], the “maximum activity compared with the basic pentapeptide of Example I” value is given as 105% and the “minimum activity compared with the basic pentapeptide of Example I” value was 70%.

For the compound `CC(C)[C@H](NC(=O)[C@H](CC(=O)O)NC(=O)[C@H](CCCCN)NC(=O)[C@@H](N)CCCNC(=N)N)C(=O)N[C@@H](Cc1ccc(O)cc1)C(=O)O` [Example I, H2 N-ARG-LYS-ASP-VAL-TYR-COOH] (H-RKDVY-OH), in the assay with CR^+ B cells, the “induction of differentiation of CR+ B cells” value was “did not induce”. Also, the “neuromuscular transmission impairment by electromyography” value in assay [2] was “detectable neuromuscular impairment”.
